# Experiments:
# human LBP = biological target: T1, human LBP (Homo sapiens, UniProt P18428); test: LPS-binding protein (LBP)/LPS interaction assay (Endoblock LBP ELISA); conditions: Polymyxin-B 100 μM
# T1 construct: purchased Hycult Biotech
# T1 sequence (P18428 26-481): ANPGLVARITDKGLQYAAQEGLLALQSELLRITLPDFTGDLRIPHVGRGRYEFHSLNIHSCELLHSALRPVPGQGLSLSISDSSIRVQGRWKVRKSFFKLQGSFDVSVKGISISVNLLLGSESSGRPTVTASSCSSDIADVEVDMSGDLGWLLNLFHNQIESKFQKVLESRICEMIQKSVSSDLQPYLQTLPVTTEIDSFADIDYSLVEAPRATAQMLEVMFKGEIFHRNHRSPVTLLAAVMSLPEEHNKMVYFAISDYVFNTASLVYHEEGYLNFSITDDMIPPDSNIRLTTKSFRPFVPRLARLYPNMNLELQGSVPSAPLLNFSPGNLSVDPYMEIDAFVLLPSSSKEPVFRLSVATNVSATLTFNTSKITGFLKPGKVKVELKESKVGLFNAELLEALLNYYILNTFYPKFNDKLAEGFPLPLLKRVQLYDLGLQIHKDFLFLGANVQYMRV
# Protocol: The Endoblock LBP ELISA test kit (Hycult Biotech, PA, USA) was used according to the manufacturer's instructions to investigate whether Fh12 disrupts the interaction between LPS and LBP. Briefly, binding of biotinylated LPS to pre-captured human LBP was assessed using streptavidin peroxidase, followed by addition of tetramethylbenzidine. Fh12 (0.05-10 μg/ml) was pre-incubated for 30 min with biotinylated-LPS and added to wells pre-coated with anti-LBP+LBP. PMB (0.2-100 μM), which competes with LBP for binding to LPS, was used as a control for inhibition by pre-incubation with biotinylated-LPS.
# To investigate the mechanism through which Fh12 specifically blocks the interaction between LPS and TLR4, we firstly assessed whether Fh12 exposure alters either the interaction of LPS with […] (LBP), or the expression of any TLR4 complex component. To assess whether Fh12 prevents binding of LPS to LBP, we used an LBP-ELISA kit, which detects binding of biotinylated LPS to LBP. PMB, which competes with LBP for binding to LPS, was used as a positive control. A lipid-binding protein assay (Endoblock) was used to investigate whether Fh12 disrupts the interaction between LPS and LBP. Polymyxin-B (100 μM), which is known to compete with LBP for binding to LPS, blocked LBP/LPS binding.
# TLR4 = test: NF-κB activation in TLR4-transfected HEK cells (SEAP, A655); format: cell-based, human; conditions: PMB 100 μM; LPS 5 μg/ml
# Protocol: To investigate the mechanism of interaction between Fh12 and TLR4 we used Human Embryonic Kidney 293 cells (HEK293, InvivoGen). These cells (HEK293-TLR4) are co-transfected with genes encoding cluster differentiation antigen-14 (CD14), myeloid differentiation protein-2 (MD2), toll-like receptor-4 (TLR4) co-receptor, and a SEAP reporter gene (HEK293-TLR4). Cells were maintained in DMEM supplemented with 4.5 g/L glucose, 10% fetal bovine serum (FBS), 50 U/ml penicillin, 50 μg/ml streptomycin, 100 μg/ml Normocin™ and 2 mM L-glutamine. For all experiments a cell suspension was prepared using HEK-Blue™ Detection medium at 14×10^4 cells/ml. For stimulation experiments, cells were seeded at 2.52×10^4 cells/well in 96-well flat-bottom plates and treated with Fh12 (from 0.62 to 10 μg/ml) or LPS (5 μg/ml), and incubated at 37° C., 5% CO2 for 24 h. In the inhibition experiments, cells were cultured with Fh12 (0.6 to 10 μg/ml) 30 min prior LPS (5 μg/ml) stimulation. […] All readings were done at 655 nm after 24 h of LPS-stimulation. […] The percent of reduction (R %) of the absorbance values was calculated by the formula R (%)=100−[(A−C)×100)/(B−C)], where A is the mean A655 of three replicates obtained when cells were stimulated with Fh12, and B is the mean A665 value obtained when cells were exposed to LPS, and C is the mean A655 of three replicates obtained when cells were stimulated with PBS. […]
substance,measurement,setting,value
polymyxin-B [PMB],"LBP/LPS binding, positive control",human LBP,blocked
same,"NF-κB expression, antagonist control",TLR4,completely suppressed

# From patent US10376561B1, “Fasciola hepatica fatty acid binding protein a novel anti-inflammatory molecule” (priority 2015, dated 2019)
